The results in this text go back to patent publication US20230322789A1, “PYRAZOLOPYRIDAZINONE COMPOUND, AND PHARMACEUTICAL COMPOSITION AND USE THEREOF” (BroadenBio Co., Ltd., priority 2020, published 2023).

The structures appear in SMILES notation. Where only a bound is given, the exact number is not on record here.

In general, IC50 refers to the concentration needed to halve the response being measured.

In experiment [1] the target is HPK1 (Homo sapiens (Human), UniProt Q92918). Put plainly: HPK1 kinase activity inhibition test (ADP-Glo, luminescence). The following applies: HPK1 5 nM, ATP 2 μM, read-out: IC50, inhibitory effects of compounds on HPK1 kinase activity. Type of experiment: biochemical. A digest of the protocol:
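HPK1 autophosphorylation was run without added substrate. Kinase and compound were preincubated 10 min at 25° C., then ATP was added for 60 min at 25° C. ADP formed was detected by ADP-Glo luminescence, and IC50 was taken from a four-parameter nonlinear fit.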
(In ADP-Glo the light output rises with the ADP produced.)

Experiment [2] deals with Human Jurkat-E6-1 cells. Put plainly: Measurement of IL-2 secretion of Jurkat cells by ELISA. Type of experiment: cell-based. The following applies: Homo sapiens, Jurkat E6.1, anti-CD3/anti-CD28 stimulation 24 hours, read-out: Percentage of the amount of IL-2 secreted from compound treated/DMSO-treated cells; for activity at 3 µM: test compound 3.0 μM. The protocol: 2. Measurement of IL-2 Secretion of Jurkat Cells by ELISA
Human Jurkat-E6-1 cells were incubated with various concentrations of test compounds for 30 minutes in a humidified incubator at 37° C. and […]. Cells were transferred to cell culture plates pre-coated with anti-human CD3 antibody, then soluble anti-human CD28 antibody was added, and cells were stimulated for 24 hours at 37° C. and 5% CO2 in a humidified incubator. The cell culture medium was collected by centrifugation, and was then transferred to a 96-well transparent microtiter plate (Thermo) pre-coated with anti-human IL-2 antibody, incubated at room temperature for 2 hours, and gently shaken, washed with washing buffer for 4 times, and then followed the ELISA MAX Deluxe Set Human IL-2 (BioLegend) kit procedure, used a microplate reader (Molecular Device, i3X) to read the GD value. The best standard curve was selected by the microplate reader application software, and the corresponding concentration was calculated according to the GD value of the standard. Results are expressed as a percentage of the amount of IL-2 secreted from compound-treated/DMSO-treated cells.

Sequence of HPK1 (Q92918 whole entry): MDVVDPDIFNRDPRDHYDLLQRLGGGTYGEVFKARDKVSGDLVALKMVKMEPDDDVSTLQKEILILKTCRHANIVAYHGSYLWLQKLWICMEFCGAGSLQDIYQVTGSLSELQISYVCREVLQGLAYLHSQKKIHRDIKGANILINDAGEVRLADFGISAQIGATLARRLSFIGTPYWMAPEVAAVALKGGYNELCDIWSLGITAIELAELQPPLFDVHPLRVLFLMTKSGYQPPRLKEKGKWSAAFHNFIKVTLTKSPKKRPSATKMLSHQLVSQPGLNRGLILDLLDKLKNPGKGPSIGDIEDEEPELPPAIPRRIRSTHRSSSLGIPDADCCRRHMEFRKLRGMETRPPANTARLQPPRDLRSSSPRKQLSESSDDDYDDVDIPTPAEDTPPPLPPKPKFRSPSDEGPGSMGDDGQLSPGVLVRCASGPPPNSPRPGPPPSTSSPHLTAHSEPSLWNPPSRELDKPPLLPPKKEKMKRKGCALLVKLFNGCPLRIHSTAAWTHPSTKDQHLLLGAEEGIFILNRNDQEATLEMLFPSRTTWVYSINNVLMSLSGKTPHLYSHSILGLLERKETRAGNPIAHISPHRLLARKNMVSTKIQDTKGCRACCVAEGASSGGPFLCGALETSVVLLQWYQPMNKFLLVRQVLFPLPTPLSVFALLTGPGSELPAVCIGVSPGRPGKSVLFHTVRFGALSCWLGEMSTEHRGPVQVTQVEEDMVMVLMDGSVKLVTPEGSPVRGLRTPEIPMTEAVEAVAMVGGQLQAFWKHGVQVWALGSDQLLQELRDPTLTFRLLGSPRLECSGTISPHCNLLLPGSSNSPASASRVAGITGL

For `COc1cccc(F)c1-n1nc2c(-c3cnc(N4CCOCC4)nc3)n[nH]c2cc1=O` [Compound 111, 5-(2-fluoro-6-methoxyphenyl)-3-(2-morpholinyl-pyrimidin-5-yl)-1H-pyrazolo[4,3-c]pyridazin-6(5H)-one], the IC50 in experiment [1] was no more than 50 nM. Besides, the activity at 3 µM in experiment [2] was determined as 522%.
The corresponding values for `Cc1cccc(F)c1-n1nc2c(-c3ccc(N4CCN(C)CC4CO)cc3)n[nH]c2cc1=O` (stereo not shown) [Compound 130, 5-(2-fluoro-6-methylphenyl)-3-(4-(2-(hydroxymethyl)-4-methylpiperazin-1-yl)phenyl)-1H-pyrazolo[4,3-c]pyridazin-6(5H)-one] are no more than 50 nM and 454%.
The matching figures for `Cc1cccc(F)c1-n1nc2c(-c3ccc(N4CCN(C)C(C(C)(C)O)C4)cc3)n[nH]c2cc1=O` (stereo not shown) [Compound 125, 5-(2-fluoro-6-methylphenyl)-3-(4-(3-(2-hydroxylprop-2-yl)-4-methylpiperazin-1-yl)phenyl)-1H-pyrazolo[4,3-c]pyridazin-6(5H)-one]: no more than 50 nM and 216%.
The matching figures for `COc1cc(C#N)cc(F)c1-n1nc2c(-c3ccc(N4CCN(C5COC5)CC4)cc3)n[nH]c2cc1=O` [Compound 86, 3-fluoro-5-methoxy-4-(3-(4-(4-(oxetan-3-yl)piperazin-1-yl)phenyl)-6-oxo-1H-pyrazolo[4,3-c]pyridazin-5(6H)-yl)benzonitrile]: no more than 50 nM and 334%.
For `Cc1cccc(F)c1-n1nc2c(-c3ccc(OCC4CNCCN4)cc3)n[nH]c2cc1=O` (stereo not shown) [Compound 93, 5-(2-fluoro-6-methylphenyl)-3-(4-(piperazin-2-ylmethoxy)phenyl)-1H-pyrazolo[4,3-c]pyridazin-6(5H)-one], in experiment [1], the IC50 is no more than 50 nM. The activity at 3 µM in experiment [2] was found to be 210%.
The matching figures for `COc1cccc(C)c1-n1nc2c(-c3ccc(N4CCN(C)CC4)cc3)n[nH]c2cc1=O` [Compound 2, 5-(2-methoxy-6-methylphenyl)-3-(4-(4-methylpiperazin-1-yl)phenyl)-1H-pyrazolo[4,3-c]pyridazin-6(5H)-one]: 50 to 500 nM and 238%.
As to `CNC(=O)c1cc(F)c(-n2nc3c(-c4ccc(N5CCN(C)CC5)cc4)n[nH]c3cc2=O)c(OC)c1` [Compound 79, 3-fluoro-5-methoxy-N-methyl-4-(3-(4-(4-methylpiperazin-1-yl)phenyl)-6-oxo-1H-pyrazolo[4,3-c]pyridazin-5(6H)-yl)benzamide], in experiment [1], the IC50 is no more than 50 nM. Besides, in experiment [2], the activity at 3 µM worked out at 361%.
Turning to `COc1cccc(F)c1-n1nc2c(-c3ccc(N4CCC(C)(N)CC4)cc3)n[nH]c2cc1=O` [Compound 146, 3-(4-(4-amino-4-methylpiperidin-1-yl)phenyl)-5-(2-fluoro-6-methoxyphenyl)-1H-pyrazolo[4,3-c]pyridazin-6(5H)-one], the half-inhibitory concentration (IC50) in experiment [1] is no more than 50 nM. In addition, the activity at 3 µM in experiment [2] amounted to 537%.
As to `Cc1cc(C#N)cc(F)c1-n1nc2c(-c3ccc(N4CCN(C)CC4)cc3)n[nH]c2cc1=O` [Compound 42, 3-fluoro-5-methyl-4-(3-(4-(4-methylpiperazin-1-yl)phenyl)-6-oxo-1H-pyrazolo[4,3-c]pyridazin-5(6H)-yl)benzonitrile], the IC50 in experiment [1] was no more than 50 nM. Besides, the activity at 3 µM in experiment [2] turned out to be 365%.
Consider `COc1cccc(F)c1-n1nc2c(-c3ccc(N4CCOCC4)cc3)n[nH]c2c(C)c1=O` [Compound 155, 5-(2-fluoro-6-methoxyphenyl)-7-methyl-3-(4-morpholinophenyl)-1H-pyrazolo[4,3-c]pyridazin-6(5H)-one], for which, in experiment [1], the IC50 was in the range of 50 to 500 nM. Further, in experiment [2], the activity at 3 µM worked out at 435%.
Regarding `COc1cc(C#N)cc(F)c1-n1nc2c(-c3ccc(N4CCN5C(=O)OCC5C4)cc3)n[nH]c2cc1=O` (stereo not shown) [Compound 124, 3-fluoro-5-methoxy-4-(6-oxo-3-(4-(3-oxotetrahydro-1H-oxazolo[3,4-a]pyrazin-7(3H)-yl)phenyl)-1H-pyrazolo[4,3-c]pyridazin-5(6H)-yl)benzonitrile], the IC50 in experiment [1] was no more than 50 nM. For the same compound, the activity at 3 µM in experiment [2] came out at 570%.
Turning to `Cc1cccc(F)c1-n1nc2c(-c3ccc4c(c3)CCN(C3CNC3)C4)n[nH]c2cc1=O` [Compound 193], the IC50 in experiment [1] was no more than 50 nM. In addition, in experiment [2], the activity at 3 µM was found to be 169%.
Turning to `COc1cccc(F)c1-n1nc2c(-c3ccc(N4CCC(C)(OC)CC4)cc3)n[nH]c2cc1=O` [Compound 141, 5-(2-fluoro-6-methoxyphenyl)-3-(4-(4-methoxy-4-methylpiperidin-1-yl)phenyl)-1H-pyrazolo[4,3-c]pyridazin-6(5H)-one], the IC50 in experiment [1] was no more than 50 nM. For the same compound, the activity at 3 µM in experiment [2] turned out to be 390%.
Turning to `COc1cccc(F)c1-n1nc2c(-c3ccc(N4CCN5CCOC[C@@H]5C4)cc3)n[nH]c2cc1=O` [Compound 135, (S)-5-(2-fluoro-6-methoxyphenyl)-3-(4-(hexahydropyrazino[2,1-c][1,4]oxazin-8(1H)-yl)phenyl)-1H-pyrazolo[4,3-c]pyridazin-6(5H)-one], the IC50 in experiment [1] is no more than 50 nM. Besides, the activity at 3 µM in experiment [2] amounted to 964%.
Consider `COc1cccc(F)c1-n1nc2c(-c3ccc(N4CCN(C)CC4)cc3)n[nH]c2cc1=O` [Compound 9, 5-(2-fluoro-6-methoxyphenyl)-3-(4-(4-methylpiperazin-1-yl)phenyl)-1H-pyrazolo[4,3-c]pyridazin-6(5H)-one], for which, in experiment [1], the IC50 is no more than 50 nM. In addition, the activity at 3 µM in experiment [2] was found to be 188%.
The matching figures for `Cc1cc(C#N)cc(F)c1-n1nc2c(-c3ccc(N4CCN(C)CC4)nc3)n[nH]c2cc1=O` [Compound 99, 3-fluoro-5-methyl-4-(3-(6-(4-methylpiperazin-1-yl)pyrid-3-yl)-6-oxo-1H-pyrazolo[4,3-c]pyridazin-5(6H)-yl)benzonitrile]: 50 to 500 nM and 237%.
Consider `Cc1cc(C#N)cc(F)c1-n1nc2c(-c3ccc(N4CCN(C5CCOC5)CC4)cc3)n[nH]c2cc1=O` (stereo not shown) [Compound 85, 3-fluoro-5-methyl-4-(6-oxo-3-(4-(4-(tetrahydrofuran-3-yl)piperazin-1-yl)phenyl)-1H-pyrazolo[4,3-c]pyridazin-5(6H)-yl)benzonitrile], for which the IC50 in experiment [1] was no more than 50 nM. The activity at 3 µM in experiment [2] came out at 239%.
Consider `COc1cccc(F)c1-n1nc2c(-c3ccc(N4CCN5CCOC[C@H]5C4)cc3)n[nH]c2cc1=O` [Compound 136, (R)-5-(2-fluoro-6-methoxyphenyl)-3-(4-(hexahydropyrazino[2,1-c][1,4]oxazin-8(1H)-yl)phenyl)-1H-pyrazolo[4,3-c]pyridazin-6(5H)-one], for which, in experiment [1], the IC50 was no more than 50 nM. The activity at 3 µM in experiment [2] came to 702%.
For the compound `Cc1cccc(F)c1-n1nc2c(-c3ccc(N4CCN(C)C(C)(C)C4)cc3)n[nH]c2cc1=O` [Compound 89, 5-(2-fluoro-6-methylphenyl)-3-(4-(3,3,4-trimethylpiperazin-1-yl)phenyl)-1H-pyrazolo[4,3-c]pyridazin-6(5H)-one], the IC50 in experiment [1] was no more than 50 nM. For the same compound, the activity at 3 µM in experiment [2] was 689%.
Take `COc1cccc(F)c1-n1nc2c(-c3ccc(N4CCN(C)C(=O)C4)cc3)n[nH]c2cc1=O` [Compound 33, 5-(2-fluoro-6-methoxyphenyl)-3-(4-(4-methyl-3-oxo-piperazin-1-yl)phenyl)-1H-pyrazolo [4,3-c]pyridazin-6(5H)-one]: the IC50 in experiment [1] was no more than 50 nM. The activity at 1 µM in experiment [2] (test compound 1.0 μM) came out at 631%.
